Source: article PMC9503459, “Antifungal Activity, Structural Stability, and Immunomodulatory Effects on Human Immune Cells of Defensin from the Lentil Lens culinaris” (Membranes, 2022)
No end group written: not given here.

Tested on: CD8+ T cytotoxic cells
Assay: Cytokine response by multiplex xMAP, CD8+ T cytotoxic cells
Type: cell-based, human
Conditions: 2 µM, 24 h
Method: Colorectal adenocarcinoma Caco-2 cell line (ATCC HTB-37) was cultured in complete DMEM/F12 (1:1) medium containing 10% fetal bovine serum (FBS, Gibco) and 1X antibiotic-antimycotic solution (1XAAS, Invitrogen, Waltham, MA, USA). The acute monocytic leukemia THP-1 line (ATCC TIB-202) was cultured in complete RPMI-1640 medium, containing 10% FBS, 1XAAS, and […]. THP-1 cells were differentiated into pro-inflammatory macrophages (Mφ1) with phorbol 12-myristate 13-acetate (Sigma-Aldrich) for 24 h and subsequently polarized with lipopolysaccharide from E. coli (Sigma-Aldrich) and rhIFN-γ (Sigma-Aldrich) for another 48 h according to previously reported protocol. All cells were cultured in a humidified CO2 incubator (5% CO2, 37 °C). Primary peripheral blood mononuclear cells (PBMCs) collected from a healthy donor were purchased from American Type Culture Collection (ATCC PCS-800-011). CD4^+ T-helper and CD8^+ T cytotoxic cells were isolated from PBMCs by magnetic separation with mouse anti-human CD4-PE (clone 13B8.2, Beckman Coulter Diagnostics, Pasadena, CA, USA) and CD8-PE (clone REA734, Miltenyi Biotec, Bergisch Gladbach, Germany), Anti-PE MicroBeads (Miltenyi Biotec), and LS Separation Columns (Miltenyi Biotec). Isolated CD4^+ and CD8^+ cells were expanded separately with Dynabeads™ Human T-Expander CD3/CD28 (Gibco, Waltham, MA, USA) in RPMI-1640 supplemented with 10% FBS, 1XAAS and 100 U/mL rh-IL-2 (Gibco). Regulatory CD4^+ FoxP3^+ T cells (Tregs) were isolated from PBMCs by magnetic separation with CD4^+CD25^+ Regulatory T Cell Isolation Kit, human (Miltenyi Biotec). Primary CD14^+ blood monocytes were isolated from PBMCs by adherence according to standard technique. Monocyte-derived mature dendritic cells (moDCs) were obtained from CD14^+ blood monocytes according to the previously reported protocol. Briefly, blood monocytes were incubated in complete RPMI-1640 medium, containing 10% FBS, 1XAAS, 800 U/mL rhGM-CSF (Sci-Store, Russia, Moscow) and 500 U/mL rhIL-4 (Sci-Store) for 3 days. Fresh complete RPMI-1640 medium with rhGM-CSF and rhIL-4 was added to the culture on day 3. On day 5, fresh complete RPMI-1640 containing 100 U/mL rhTNF-α (Sigma) as well as 800 U/mL rhGM-CSF and 500 U/mL rhIL-4 was added and the culture was incubated for another 4 days until full maturation.
Caco-2 cells were seeded into the wells of a 48-well plate, coated with 0.1% bovine collagen (Sigma-Aldrich) for 24 h, 3 weeks before the experiment with complete DMEM/F12 (1:1) medium renewal every 2–3 days. Monocytes, moDCs, CD4^+ T-helper and CD8^+ T cytotoxic cells, Mφ1, and Regulatory CD4^+ FoxP3^+ T cells were seeded into the wells of 48-well plates in the complete RPMI-1640 medium supplemented with 10% Human AB serum (HABS, Capricorn Scientific, Ebsdorfergrund, Germany) and 1XAAS 24 h prior to the experiment; medium in Caco-2-containing wells was also replaced with the same medium. After 24 h, half of the medium in each well was replaced by fresh complete RPMI-1640 medium with 10% HABS, supplemented with 4 µM of Lc-def for the sample wells or fresh medium alone for the control wells. Cell cultures were kept in CO2-incubator (5% CO2, 37 °C) for another 24 h. Culture supernatants were collected 24 h later and stored at −70 °C degrees less than one month prior to the analytes assessment. […]

For “Lc-def: defensin from lentil Lens culinaris seeds (UniProt:B3F051), recombinant, overexpressed in Escherichia coli (KTCENLSDSFKGPCIPDGNCNKHCKEKEHLLSGRCRDDFRCWCTRNC; disulfide (positions not given here); ends not checked; also: disulfide bonds present, pairing not given here; UniProt B3F051 28-74, looked up)”, the EGF was <1.95↓ pg/ml, the Eotaxin was <3.23↓ pg/ml and the FGF-2 was 0 pg/mL. For the same substance, the FLT-3L was <0.45↓ pg/ml, the Fractalkine was <23.19↓ pg/ml and the G-CSF was <2.57↓ pg/ml. For the same substance, the GM-CSF was <1.36↓ pg/ml, the GROa was <0.67↓ pg/ml and the IFNa2 was <4.43↓ pg/ml. The IFNg was <1.99↓ pg/ml, the IL-1RA was <0.83↓ pg/ml and the IL-1a was 9 pg/mL. The IL-1b was <18.72↓ pg/ml, the IL-2 was <0.31↓ pg/ml and the IL-3 was <0.48↓ pg/ml. For the same substance, the IL-4 was <0.31↓ pg/ml, the IL-5 was 9.01 pg/mL and the IL-6 was <0.30↓ pg/ml. For the same substance, the IL-7 was <0.33↓ pg/ml, the IL-8 was <0.49↓ pg/ml and the IL-9 was <1.05↓ pg/ml. For the same substance, the IL-10 was <0.68↓ pg/ml, the “IL-12 (p40)” value was <3.02↓ pg/ml and the “IL-12 (p70)” value was <1.48↓ pg/ml. The IL-13 was <5.00↓ pg/ml, the IL-15 was <1.45↓ pg/ml and the IL-17A was <1.55↓ pg/ml. The IL-17E/IL-25 was <20.59↓ pg/ml, the IL-17F was <16.96↓ pg/ml and the IL-18 was <0.35↓ pg/ml. The IL-22 was <8.31↓ pg/ml, the IL-27 was <8.55↓ pg/ml and the IP-10 was <1.56↓ pg/ml. The M-GSF was <23.75↓ pg/ml, the MCP-1 was <1.52↓ pg/ml and the MCP-3 was <3.95↓ pg/ml. The MDC was <0.35↓ pg/ml, the MIG was <3.43↓ pg/ml and the MIP-1a was <1.76↓ pg/ml. The MIP-1b was <1.92↓ pg/ml, the PDGF-AA was <7.38↓ pg/ml and the PDGF-AB/BB was <9.75↓ pg/ml. The RANTES was 366.74 pg/mL, the TGF-a was <0.66↓ pg/ml and the TNFa was <3.91↓ pg/ml. For the same substance, the TNFb was <0.73↓ pg/ml, the VEGFa was <1.27↓ pg/ml and the “effects on cytokine production” value was “No effects”. The sCD40L was <6.66↓ pg/ml.
